The text below walks through data of US20080274892A1, “Novel Haloalkylsulfonanilide Derivative, Herbicide, and Method of Use Thereof” (priority 2005, published 2008).

Data set [1] deals with bulrush. Description: Test Example 1: herbicidal efficacy on rice paddy weeds pre-emergence. It is filed as in vivo, Scirpus juncoides. Conditions: 21 days.
In data set [2] the test system is false pimpernel. Described as above. Type of data set: in vivo, Lindernia pyxidaria. The settings on record: 21 days.
The next data set deals with barnyard glass. Description: Test Example 2: herbicidal efficacy on rice paddy weeds post-emergence. It is filed as in vivo, Echinochloa crus-galli. The settings on record: post-emergence, one leaf stage, 21 days after treatment. A digest of the protocol:
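Efficacy on paddy weeds was scored on a 0 to 4 growth-inhibition scale: 4 for 90%-100%, 3 for 70%-89%, 2 for 40%-69%, 1 for 1%-39% and 0 for 0%. Barnyard glass was grown in clay loam in 75 cm^2 pots under 5 cm of water in a hot house. It was compared with untreated pots 21 days after treatment.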

For data set [3], the system named is bulrush. The data set is described as above. The settings on record: post-emergence, one leaf stage, 21 days after treatment. Type of data set: in vivo, Scirpus juncoides.
Data set [4] deals with false pimpernel. The description is as above. Type of data set: in vivo, Lindernia pyxidaria. The settings on record: post-emergence, one leaf stage, 21 days after treatment.
The subject of data set [5] is paddy rice plant (cultivar: Nihonbare). Description: Test Example 3: phytotoxicity test for transplanted paddy rice plant. Conditions: transplanted rice, 21 days after treatment. Type of data set: in vivo. In a few lines:
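Clay loam soil was placed in a 75 cm^2 plastic pot and flooded to a water depth of 5 cm. Two Nihonbare paddy rice plants at the two-leaf stage were transplanted 1 cm deep and grown in a hot house. After treatment, pots stayed in the hot house for 21 days, and phytotoxicity was then graded against an untreated control.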

Setting [6] is: dosage 1000 g/ha, treated 5 days after transplantation.

With `O=C1OC(CCl)CN1Cc1ccccc1NS(=O)(=O)C(F)(F)F` (stereo not drawn) [Compound 1-39], the “Bulrush pre (herbicidal efficacy grade)” value in the data set with bulrush [1] (dosage 1000 g/ha) is on record as 4 (90%-100% of herbicidal efficacy or phytotoxicity). For the same compound, the “False pimpernel pre (herbicidal efficacy grade)” value (“False pimpernel pre” for short) with false pimpernel [2] (dosage 1000 g/ha) is reported as 4 (90%-100% of herbicidal efficacy or phytotoxicity). Besides, the “Burnyard grass post (herbicidal efficacy grade)” value (“Burnyard grass post” below) with barnyard glass (dosage 1000 g/ha) is on record as 2 (40%-69% of herbicidal efficacy or phytotoxicity). Moreover, in the data set with bulrush [3] (dosage 1000 g/ha), the “Bulrush post (herbicidal efficacy grade)” value is reported as 4 (90%-100% of herbicidal efficacy or phytotoxicity). In addition, the “False pimpernel post (herbicidal efficacy grade)” value (shortened to “False pimpernel post”) in the data set on false pimpernel [4] (dosage 1000 g/ha) is given as 4 (90%-100% of herbicidal efficacy or phytotoxicity). The “Phytotoxicity to paddy rice” value in data set [5] (setting [6]) is 0 (0% of herbicidal efficacy or phytotoxicity).

As for `O=C1OC2(CCCCC2)CN1Cc1ccccc1NS(=O)(=O)C(F)(F)F` [Compound 1-45], in the data set on bulrush [1] (dosage 1000 g/ha), the “Bulrush pre (herbicidal efficacy grade)” value is 4 (90%-100% of herbicidal efficacy or phytotoxicity). In the data set on false pimpernel [2] (dosage 1000 g/ha), the “False pimpernel pre” value is recorded as 4 (90%-100% of herbicidal efficacy or phytotoxicity). Besides, the “Burnyard grass post” value in the data set on barnyard glass (dosage 1000 g/ha) was 4 (90%-100% of herbicidal efficacy or phytotoxicity). The “Bulrush post (herbicidal efficacy grade)” value in the data set on bulrush [3] (dosage 1000 g/ha) is reported as 4 (90%-100% of herbicidal efficacy or phytotoxicity). The “False pimpernel post” value in the data set with false pimpernel [4] (dosage 1000 g/ha) is 4 (90%-100% of herbicidal efficacy or phytotoxicity). Moreover, the “Phytotoxicity to paddy rice” value in data set [5] (setting [6]) is recorded as 2 (40%-69% of herbicidal efficacy or phytotoxicity).

`CC(=O)OCC1CN(Cc2ccccc2NS(=O)(=O)C(F)(F)F)C(=O)O1` (stereo not drawn) [Compound 1-37]: in the data set with bulrush [1] (dosage 300 g/ha), the “Bulrush pre (herbicidal efficacy grade)” value is recorded as 0 (0% of herbicidal efficacy or phytotoxicity). The “False pimpernel pre” value in the data set with false pimpernel [2] (dosage 300 g/ha) was 1 (1%-39% of herbicidal efficacy or phytotoxicity). Also, the “Burnyard grass post” value with barnyard glass (dosage 300 g/ha) is listed as 0 (0% of herbicidal efficacy or phytotoxicity). Also, the “Bulrush post (herbicidal efficacy grade)” value in the data set on bulrush [3] (dosage 300 g/ha) is listed as 0 (0% of herbicidal efficacy or phytotoxicity). Moreover, the “False pimpernel post” value in the data set on false pimpernel [4] (dosage 300 g/ha) is listed as 3 (70%-89% of herbicidal efficacy or phytotoxicity). The “Phytotoxicity to paddy rice” value in data set [5] (dosage 300 g/ha) is given as 0 (0% of herbicidal efficacy or phytotoxicity).

Consider `O=C1OC(c2ccccc2)CN1Cc1ccccc1NS(=O)(=O)C(F)(F)F` (stereo not drawn) [Compound 1-41], for which the “Bulrush pre (herbicidal efficacy grade)” value in the data set on bulrush [1] (dosage 1000 g/ha) is 4 (90%-100% of herbicidal efficacy or phytotoxicity). Further, the “False pimpernel pre” value in the data set with false pimpernel [2] (dosage 1000 g/ha) is on record as 4 (90%-100% of herbicidal efficacy or phytotoxicity). In addition, the “Burnyard grass post” value in the data set with barnyard glass (dosage 1000 g/ha) is 4 (90%-100% of herbicidal efficacy or phytotoxicity). In addition, the “Bulrush post (herbicidal efficacy grade)” value with bulrush [3] (dosage 1000 g/ha) is 3 (70%-89% of herbicidal efficacy or phytotoxicity). Besides, the “False pimpernel post” value in the data set on false pimpernel [4] (dosage 1000 g/ha) is listed as 2 (40%-69% of herbicidal efficacy or phytotoxicity). Moreover, the “Phytotoxicity to paddy rice” value in data set [5] (setting [6]) is on record as 1 (1%-39% of herbicidal efficacy or phytotoxicity).

Take `COCC1(C)CN(Cc2ccccc2NS(=O)(=O)C(F)(F)F)C(=O)O1` (stereo not drawn) [Compound 1-137]: in the data set on bulrush [1] (dosage 300 g/ha), the “Bulrush pre (herbicidal efficacy grade)” value is recorded as 4 (90%-100% of herbicidal efficacy or phytotoxicity). Besides, the “False pimpernel pre” value with false pimpernel [2] (dosage 300 g/ha) was 4 (90%-100% of herbicidal efficacy or phytotoxicity). Moreover, the “Burnyard grass post” value with barnyard glass (dosage 300 g/ha) was 4 (90%-100% of herbicidal efficacy or phytotoxicity). For the same compound, the “Bulrush post (herbicidal efficacy grade)” value in the data set with bulrush [3] (dosage 300 g/ha) is recorded as 4 (90%-100% of herbicidal efficacy or phytotoxicity). The “False pimpernel post” value in the data set with false pimpernel [4] (dosage 300 g/ha) was 4 (90%-100% of herbicidal efficacy or phytotoxicity). Moreover, in data set [5] (dosage 300 g/ha), the “Phytotoxicity to paddy rice” value is 2 (40%-69% of herbicidal efficacy or phytotoxicity).

In the case of `CCC1(C)CN(Cc2ccccc2NS(=O)(=O)C(F)(F)F)C(=S)O1` (stereo not drawn) [Compound 1-180], in the data set on bulrush [1] (dosage 1000 g/ha), the “Bulrush pre (herbicidal efficacy grade)” value is given as 4 (90%-100% of herbicidal efficacy or phytotoxicity). In addition, in the data set on false pimpernel [2] (dosage 1000 g/ha), the “False pimpernel pre” value is given as 4 (90%-100% of herbicidal efficacy or phytotoxicity). Moreover, in the data set on barnyard glass (dosage 1000 g/ha), the “Burnyard grass post” value is 4 (90%-100% of herbicidal efficacy or phytotoxicity). Also, the “Bulrush post (herbicidal efficacy grade)” value with bulrush [3] (dosage 1000 g/ha) is recorded as 4 (90%-100% of herbicidal efficacy or phytotoxicity). Moreover, the “False pimpernel post” value with false pimpernel [4] (dosage 1000 g/ha) is 4 (90%-100% of herbicidal efficacy or phytotoxicity). Besides, the “Phytotoxicity to paddy rice” value in data set [5] (setting [6]) is listed as 2 (40%-69% of herbicidal efficacy or phytotoxicity).

As to `CC(C)COC(=O)N(c1ccccc1CN1CC(c2ccccc2)OC1=O)S(=O)(=O)C(F)(F)F` (stereo not drawn) [Compound 1-42], the “Bulrush pre (herbicidal efficacy grade)” value with bulrush [1] (dosage 1000 g/ha) is on record as 3 (70%-89% of herbicidal efficacy or phytotoxicity). The “False pimpernel pre” value in the data set with false pimpernel [2] (dosage 1000 g/ha) is recorded as 4 (90%-100% of herbicidal efficacy or phytotoxicity). Also, in the data set on barnyard glass (dosage 1000 g/ha), the “Burnyard grass post” value is 4 (90%-100% of herbicidal efficacy or phytotoxicity). Also, the “Bulrush post (herbicidal efficacy grade)” value in the data set with bulrush [3] (dosage 1000 g/ha) was 3 (70%-89% of herbicidal efficacy or phytotoxicity). Further, in the data set on false pimpernel [4] (dosage 1000 g/ha), the “False pimpernel post” value is 3 (70%-89% of herbicidal efficacy or phytotoxicity). Also, the “Phytotoxicity to paddy rice” value in data set [5] (setting [6]) is on record as 0 (0% of herbicidal efficacy or phytotoxicity).

For `COCC1(C)CN(Cc2ccccc2N(C(=O)OCC(C)C)S(=O)(=O)C(F)(F)F)C(=O)O1` (stereo not drawn) [Compound 1-138], the “Bulrush pre (herbicidal efficacy grade)” value in the data set on bulrush [1] (dosage 1000 g/ha) is 4 (90%-100% of herbicidal efficacy or phytotoxicity). Further, the “False pimpernel pre” value in the data set on false pimpernel [2] (dosage 1000 g/ha) was 4 (90%-100% of herbicidal efficacy or phytotoxicity). Besides, in the data set on barnyard glass (dosage 1000 g/ha), the “Burnyard grass post” value is on record as 4 (90%-100% of herbicidal efficacy or phytotoxicity). Moreover, in the data set with bulrush [3] (dosage 1000 g/ha), the “Bulrush post (herbicidal efficacy grade)” value was 4 (90%-100% of herbicidal efficacy or phytotoxicity). The “False pimpernel post” value in the data set with false pimpernel [4] (dosage 1000 g/ha) was 4 (90%-100% of herbicidal efficacy or phytotoxicity). Besides, the “Phytotoxicity to paddy rice” value in data set [5] (setting [6]) is reported as 2 (40%-69% of herbicidal efficacy or phytotoxicity).

For `CCC1(C)CN(Cc2ccccc2N(C(=O)OC)S(=O)(=O)C(F)(F)F)C(=S)O1` (stereo not drawn) [Compound 1-182], the “Bulrush pre (herbicidal efficacy grade)” value with bulrush [1] (dosage 1000 g/ha) is listed as 4 (90%-100% of herbicidal efficacy or phytotoxicity). The “False pimpernel pre” value with false pimpernel [2] (dosage 1000 g/ha) was 4 (90%-100% of herbicidal efficacy or phytotoxicity). Moreover, the “Burnyard grass post” value in the data set on barnyard glass (dosage 1000 g/ha) is listed as 4 (90%-100% of herbicidal efficacy or phytotoxicity). The “Bulrush post (herbicidal efficacy grade)” value in the data set on bulrush [3] (dosage 1000 g/ha) is on record as 4 (90%-100% of herbicidal efficacy or phytotoxicity). In addition, the “False pimpernel post” value in the data set on false pimpernel [4] (dosage 1000 g/ha) is 4 (90%-100% of herbicidal efficacy or phytotoxicity). Also, in data set [5] (setting [6]), the “Phytotoxicity to paddy rice” value is listed as 1 (1%-39% of herbicidal efficacy or phytotoxicity).

For the compound `CC(C)(C)C1(C)CN(Cc2ccccc2NS(=O)(=O)C(F)(F)F)C(=O)O1` (stereo not drawn) [Compound 1-69], the “Bulrush pre (herbicidal efficacy grade)” value with bulrush [1] (dosage 300 g/ha) is reported as 4 (90%-100% of herbicidal efficacy or phytotoxicity). The “False pimpernel pre” value in the data set on false pimpernel [2] (dosage 300 g/ha) was 4 (90%-100% of herbicidal efficacy or phytotoxicity). Besides, in the data set on barnyard glass (dosage 300 g/ha), the “Burnyard grass post” value is listed as 3 (70%-89% of herbicidal efficacy or phytotoxicity). For the same compound, the “Bulrush post (herbicidal efficacy grade)” value with bulrush [3] (dosage 300 g/ha) was 4 (90%-100% of herbicidal efficacy or phytotoxicity). Moreover, in the data set on false pimpernel [4] (dosage 300 g/ha), the “False pimpernel post” value is listed as 4 (90%-100% of herbicidal efficacy or phytotoxicity). In addition, the “Phytotoxicity to paddy rice” value in data set [5] (dosage 300 g/ha) was 1 (1%-39% of herbicidal efficacy or phytotoxicity).

With `O=C1OC2CCCCC2N1Cc1ccccc1NS(=O)(=O)C(F)(F)F` (stereo not drawn) [Compound 1-47], the “Bulrush pre (herbicidal efficacy grade)” value with bulrush [1] (dosage 1000 g/ha) is on record as 4 (90%-100% of herbicidal efficacy or phytotoxicity). Further, in the data set on false pimpernel [2] (dosage 1000 g/ha), the “False pimpernel pre” value is 4 (90%-100% of herbicidal efficacy or phytotoxicity). Also, the “Burnyard grass post” value with barnyard glass (dosage 1000 g/ha) is reported as 4 (90%-100% of herbicidal efficacy or phytotoxicity). For the same compound, in the data set with bulrush [3] (dosage 1000 g/ha), the “Bulrush post (herbicidal efficacy grade)” value is 4 (90%-100% of herbicidal efficacy or phytotoxicity). For the same compound, the “False pimpernel post” value in the data set with false pimpernel [4] (dosage 1000 g/ha) was 4 (90%-100% of herbicidal efficacy or phytotoxicity). The “Phytotoxicity to paddy rice” value in data set [5] (setting [6]) is recorded as 2 (40%-69% of herbicidal efficacy or phytotoxicity).
